Data from US20200061038A1, “THERAPEUTIC AGENT FOR FIBROSIS AND INHIBITOR OF NUCLEAR TRANSLOCATION OF PHOSPHORYLATED SMAD” (NATIONAL UNIVERSITY CORPORATION CHIBA UNIVERSITY, priority 2016, published 2020).

Experiments:
[1] = system: lactosylceramide synthase; assay: Lactosylceramide synthesis activation test; type: cell-based, human; details: HFL1 cells; PPMP 3 μM, NB-DNJ 100 μM applied 30 minutes before TGFβ1 (10 ng/mL) stimulation
Description: The experiment was conducted by referring to Chatterjee S, Pandey A. The Yin and Yang of lactosylceramide metabolism: implications in cell function. Biochim Biophys Acta. 2008 March; 1780 (3); 370-82.
The sample was put through quantitative determination of protein, and then 300 μM of […], 100 μM of uridine diphosphate galactose (UDP-Gal, containing 7.5×10^5 dpm of [^3H] UDP-Gal), and reaction buffer, were added to 50 μL of sample, to a final volume of 100 μL/tube. This reaction sample was incubated for 2 hours at 37° C., and finally 50 mM of KCl and 25 mM of EDTA were added to stop the reaction. Thereafter, lipids were extracted from the sample according to the Bligh-Dyer method, and all lipids were expanded using TLC (chloroform:methanol:water=100:42:6). The separated lipids were stained using iodine gas, silica gel at the same position as the lactosylceramide target was scraped off, and its radiation activity was measured using a liquid scintillation counter (Aloka LSC-5100 manufactured by Hitachi-Aloka Medical), and then the amount of synthesized lactosylceramide was calculated. It should be noted that, for the background sample(control), a sample with zero incubation time was used.
Whether or not TGFβ1 treatment would increase the synthesis of lactosylceramide was examined in vitro. […]

αSMA [2] = assay: αSMA expression (western blot) in TGFβ1-stimulated HFL1 cells; type: cell-based, human; details: PPMP 3 μM, NB-DNJ 100 μM applied 30 minutes before TGFβ1 (10 ng/mL), 24 hours
Description: Human pulmonary fibroblast (HFL1) (ATCC CCL-153) cells were cultured under the conditions of 95% air-5% CO2 and 37° C., using a Dulbecco's Modified Eagle Medium (DMEM) containing 10% fetal bovine serum (FBS), 100 μg/mL streptomycin, and 66.7 μg/mL penicillin.
How an increase in lactosylceramide synthesis activity due to TGFβ1 affects the fibrosing of tissues was examined based on the expression level of αSMA, which is a fibrosing marker protein.

Smad2 = Smad2 nuclear localization (immunofluorescent staining, confocal) in HFL1 cells; type: cell-based, human; details: pretreatment PPMP 3 μM or NB-DNJ 100 μM, TGFβ1 10 ng/mL, 3 hours
Description: For immunostaining of Smad and phosphorylated Smad, ribonuclease A (RNase, Worthington Biochemical) (200 μg/mL, room temperature, 30 minutes) and propidium iodide (PI, Cayman Chemical) (20 μg/mL, room temperature, 30 minutes) were applied to stain the nucleus, and the stained images were observed using a confocal microscope (FV500 manufactured by Olympus).
When localization of Smad2/3 was observed, on the other hand, Smad2/3 accumulated in the nucleus in 3 hours after the single stimulation of TGFβ1 (10 ng/mL).

PKCδ = assay: Translocation of PKCδ into the cellular membrane in HFL1 cells; type: cell-based, human; details: PPMP 3 μM, Rottlerin 1 μM applied beforehand, two hours after TGFβ1 10 ng/mL
Description: HFL1 cells were inoculated onto a 3.5-cm glass-bottom dish by 1.0×10^4 cells/dish, and then cultured in 2.0 mL of DMEM containing 10% FBS, to achieve 70% confluence. The cells were washed in HBSS containing 0.1% BSA, and then cultured in DMEM containing 0.1% BSA for 48 hours without serum.
Thereafter, the medium was replaced by a DMEM containing 0.1% BSA, and stimulation was given for a specified period using each reagent (each inhibitor was applied 30 minutes before the stimulant), after which each sample was fixed with 4% paraformaldehyde (PFA) at 4° C. for 15 minutes. Thereafter, as deemed appropriate, the sample was permeabilized (0.3% saponin, room temperature, 1 hour) and blocked (3% BSA, room temperature, 1 hour), with a primary antibody applied overnight at 4° C., and a secondary antibody applied for 1 hour at room temperature. For immunostaining of Smad and phosphorylated Smad, ribonuclease A (RNase, Worthington Biochemical) (200 μg/mL, room temperature, 30 minutes) and propidium iodide (PI, Cayman Chemical) (20 μg/mL, room temperature, 30 minutes) were applied to stain the nucleus, and the stained images were observed using a confocal microscope (FV500 manufactured by Olympus).
In general, activation of PKC is observed in the form of its translocation into the cellular membrane; accordingly, involvement of lactosylceramide was examined using the translocation of PKCδ into the cellular membrane as an indicator.

[3] = system: patient's pulmonary fibroblast cells; assay: αSMA expression (western blot) in patient's pulmonary fibroblast cells; type: cell-based, human; details: PPMP 0.5 μM, 1.0 μM; NB-DNJ 100 μM, 200 μM; cultured 48 hours
Description: Post-operative lung tissues were obtained from a lung transplant patient who was suffering from a serious case of pleuroparenchymal fibroelastosis.
The lung tissues were shredded, rinsed with phosphate-buffered saline (PBS), and then incubated at 37° C. for 15 minutes under gentle shaking, using 1 mg/ml collagenase type I (Worthington, Lakewood, N.J., USA), 0.5 mg/ml disperse (Life Technologies), 2 U/ml DNase (QIAGEN, Valencia, Calif., USA), 0.1 mg/ml streptomycin, and 100 U/ml penicillin.
The tissues were washed twice in DMEM, and then transferred into an 80-cm^2 culture flask and cultured at 37° C. in 5% CO2.
Cell growth was monitored every week, with the culture medium changed every four days. Once the flask reached confluent cultures, the cells were collected as cells at passage 0, and the cells obtained at passage 3 were used in the experiment as the patient's pulmonary fibroblast cells.
Patient's pulmonary fibroblast cells were cultured under the conditions of 95% air-5% CO2 and 37° C., using a Dulbecco's Modified Eagle Medium (DMEM) containing 10% fetal bovine serum (FBS), 100 μg/mL streptomycin, and 66.7 μg/mL penicillin.

Smad2/3 = details: HFL1 cells; PPMP 3 μM applied 30 minutes before TGFβ1 (10 ng/mL) treatment; over time
Description: HFL1 cells were inoculated onto a six-well plate by 1.0×10^5 cells/well, and then cultured in 2.0 mL of DMEM containing 10% FBS, to achieve 70% confluence. The cells were washed using Hanks' balanced salt solution (HBSS) containing 0.1% bovine serum albumin (BSA) (4.2 mM NaHCO3, 137 mM NaCl, 5.36 mM KCl, 0.4 mM MgSO4.7H2O, 0.34 mM Na2HPO4.12H2O, 5.55 mM glucose, 0.44 mM KH2PO4, 0.72 mM CaCl2.H2O, pH=7.4), and then cultured in a DMEM containing 0.1% BSA for 48 hours without serum. […]
The cells were crushed according to the vortex method, centrifuged under the conditions of 15000 rpm and 4° C. for 30 minutes, and the supernatant was taken as a sample. Quantitative determination of protein was performed according to the Bradford method, and a specified amount of protein was separated by SDS-polyacrylic amide gel electrophoresis. […]
Thereafter, the PVDF film was soaked in an ECL solution and fluorometric detection was performed using an image capture/analysis system (ChemiDocMP System manufactured by Bio-Rad). The detected bands were converted to numerical values using image processing software (ImageJ).

αSMA [4] = assay: Bleomycin-induced pulmonary fibrosis mouse model: lung αSMA western blot; type: in vivo, C57BL/6J mice; details: mice; 20 mg/kg NB-DNJ into the bronchial tubes on days 7, 8, 9 after bleomycin; lungs on 14th day
Description: 50 μL of 3 mg/kg bleomycin hydrochloride/saline solution (Nippon Kayaku Co., Ltd.) was administered through the bronchial tubes to C57BL/6J mice (male, 8 to 12 weeks old) under tribromoethanol-ether anesthesia, to prepare mouse models for pulmonary fibrosis. 50 μL of saline solution was administered in the same manner to a control group not treated with bleomycin hydrochloride.
Seven, eight and nine days after the administration of bleomycin, 50 μL of 20 mg/kg NB-DNJ/saline solution was administered into the bronchial tubes of the mice under tribromoethanol-ether anesthesia. 50 μL of saline solution was administered into the bronchial tubes to a control group of mice not administered with NB-DNJ.
On the 14th day after the administration of bleomycin, each mouse was subjected to thoracotomy under deep ether anesthesia, and its entire body was perfused with PBS from the left ventricle using a syringe needle, while blood was removed from the lungs through the right ventricle, and the lungs were removed.
Thereafter, the tissues were further pulverized using a homogenizer, and centrifuged at 15000 rpm and 4° C. for 30 minutes.

[5] = system: bleomycin-induced fibrosing of the lung; assay: Bleomycin-induced pulmonary fibrosis mouse model: hematoxylin eosin-stained lung slices; type: in vivo, C57BL/6J mice; details: mice, lungs on 14th day
Description: 50 μL of 3 mg/kg bleomycin hydrochloride/saline solution (Nippon Kayaku Co., Ltd.) was administered through the bronchial tubes to C57BL/6J mice (male, 8 to 12 weeks old) under tribromoethanol-ether anesthesia, to prepare mouse models for pulmonary fibrosis. 50 μL of saline solution was administered in the same manner to a control group not treated with bleomycin hydrochloride. Seven, eight and nine days after the administration of bleomycin, 50 μL of 20 mg/kg NB-DNJ/saline solution was administered into the bronchial tubes of the mice under tribromoethanol-ether anesthesia. 50 μL of saline solution was administered into the bronchial tubes to a control group of mice not administered with NB-DNJ. For 7 to 13 consecutive days after the administration ofbleomycin, 0.2 mL of 600 mg/kg NB-DNJ/saline solution was orally administered daily (once a day). As control group mice which were not administrated with NB-DNJ, 0.2 mL of saline solution was orally administered. On the 14th day after the administration of bleomycin, each mouse was subjected to thoracotomy under deep ether anesthesia, and its entire body was perfused with PBS from the left ventricle using a syringe needle, while blood was removed from the lungs through the right ventricle, and the lungs were removed. The lungs were soaked in 4% paraformaldehyde and fixed overnight at 4° C. […]

| Compound | activity of the lactosylceramide synthase after TGFβ1 stimulation [1] | increase in the αSMA expression level due to TGFβ1 (αSMA [2]) | accumulation of Smad2 in the nucleus due to TGFβ1 (Smad2) | translocation of PKCδ into the cellular membrane due to TGFβ1 (PKCδ) | expression of αSMA in patient's pulmonary fibroblast cells [3] | phosphorylation levels of Smad2/3 (Smad2/3) | expression of αSMA in lung in the presence of bleomycin (αSMA [4]) | bleomycin-induced fibrosing of the lung, bronchial-tube-administration ([5]; 20 mg/kg NB-DNJ into the bronchial tubes on days 7, 8, 9 after bleomycin) | bleomycin-induced fibrosing of the lung, oral administration ([5]; 600 mg/kg NB-DNJ orally once a day, days 7 to 13 after bleomycin) |
| --- | --- | --- | --- | --- | --- | --- | --- | --- | --- |
| 1-phenyl-2-hexadecanoyl amino-3-morpholino-1-propanol [PPMP] | suppressed the activity of the lactosylceramide synthase significantly | suppressed increase in the αSMA expression level | suppressed the accumulation of Smad2 in the nucleus | translocation of PKCδ into the cellular membrane was suppressed | the expression of αSMA is suppressed | did not change the phosphorylation levels of Smad2/3 over time |  |  |  |
| CCCCN1C[C@H](O)[C@@H](O)[C@H](O)[C@H]1CO [NB-DNJ, N-butyl deoxynojirimycin] | suppressed the activity of the lactosylceramide synthase significantly | suppressed increase in the αSMA expression level | suppressed the accumulation of Smad2 in the nucleus |  | the expression of αSMA is suppressed |  | the expression of αSMA is suppressed | suppress the bleomycin-induced fibrosing of the lung | suppress the bleomycin-induced fibrosing of the lung |
